Key:
[1] = tested on: EOC-20 microglial cells; assay: PGE2 production in TNFα+IFNγ-stimulated EOC-20 microglial cells; assay type: cell-based, mouse; settings: stimulated by TNFα+IFNγ
[2] = tested on: Htt+ astroglia; assay: LPS-stimulated NO2- production in Htt+ astroglia; assay type: cell-based, mouse; settings: LPS serotype 0127:B8
Procedure: Primary astrocytes were cultured from neonatal R6/2 transgenic mouse pups (“Htt+”) which are the standard murine model for Huntington's disease (animals commercially obtained from Jackson Labs) or nontransgenic littermates. For RAW cell studies, RAW264.7 macrophages were obtained commercially from American Type Culture Collection. RAW 264.7 macrophages were grown in DMEM plus 10% FBS and 1% Pen/Strep. Cells were maintained in culture according to published methods. Cells were treated with +/−[…] bacterial lipopolysaccharide serotype 0127:B8 (Sigma Chemical)+/−various concentrations of (R)-LKE1 for 24-48 h. (R)-LKE1 was added 30 minutes prior to LPS challenge. Nitrite was measured in the cell culture medium using the Griess diazotization assay. Cells were lysed and Western blots performed for protein expression or in other experiments for ribonuclease protection assays.

[3] = tested on: NSC-34 cells; assay: NSC-34 viability in cytokine-conditioned EOC-20 microglial medium (tetrazolium reduction); assay type: cell-based, mouse
Procedure: In the second cytotoxicity paradigm, the inventor has also shown that the compounds and methods of this invention diminish the toxicity of microglia-conditioned medium toward NSC-34 cells. NSC-34 cells were treated with conditioned medium taken from EOC-20 cells that had been stimulated for 24 h with 50 U/mL IFNγ plus […] TNFα. This cytokine-conditioned EOC-20 medium is toxic to NSC-34 cells, whereas the same cytokine mixture added directly to NSC-34 cells is not toxic (data not shown). Medium from unstimulated EOC-20 cells is likewise nontoxic (data not shown). The toxic factor in the cytokine-stimulated EOC-20 cell conditioned medium was not identified. […] The concentration of (R)-LKE1 necessary to achieve half-maximal protective efficacy in this case was less than 1 μM (FIG. 3).
(R)-LKE1 protects NSC-34 motoneuron hybridoma cells from microglial-derived neurotoxic products (FIG. 3). EOC-20 microglia were stimulated with 50 U/mL IFNγ plus 20ng/mL TNFα for 24 hours, and cytokine-conditioned medium (CM) was collected. NSC-34 cells (2 days post-passage) were treated with the indicated concentration of (R)-LKE1 for 2.5 hours after which 50% of the medium was replaced with CM. […] After 48 hours, viability of NSC-34 cultures was assessed by tetrazolium reduction assay using a commercially available kit (Promega Aqueous OneStep®).

[4] = tested on: NSC-34 cells; assay: NSC-34 viability after H2O2 challenge (tetrazolium reduction); assay type: cell-based, mouse; settings: H2O2 challenge 24 h
Procedure: NSC-34 cells were challenged directly with H2O2 for 24 h and the viability was assessed by tetrazolium reduction assay.
Furthermore, the invention contemplates that cytoprotection might be achieved by providing metabolic precursors to LK, rather than direct addition of the compound. For example, the inventor has studied the effects of NSC-34 cells treated with ethyl pyruvate in the presence or absence of lanthionine for 6 h prior to challenge with H2O2 and has assayed the viability of these cells 24 h later (FIG. 10). As reported in previous studies, ethyl pyruvate alone was protective against peroxide-induced cell death (Desagher et al., 1997; Nakamichi et al., 2005) with complete protection at ethyl pyruvate concentrations >1 mM (approximately 2-fold higher than ambient cell culture medium pyruvate concentrations; data not shown).
(R)-LKE1 protects NSC-34 motoneuron x neuroblastoma hybrid cells from hydrogen peroxide toxicity (FIG. 4). Cells were treated with the indicated concentration of (R)-LKE1. Thirty minutes later cells were challenged with the indicated concentration of hydrogen peroxide. Cell viability was assayed 24 hours later by tetrazolium reduction using a commercially available kit (Promega).
NSC-34 motor neuron-like cells, derived through the fusion of a neuroblastoma cell line with embryonic mouse motor neurons (Cashman et al., 1992), were grown in Dulbeco's modified essential medium (DMEM) plus 5% fetal bovine serum (FBS) and 1% penicillin plus 1% streptomycin (Pen/Strep). Recombinant TNFα and interferon gamma (IFNγ) were purchased from BD Biosciences (Pasadena Calif. USA). Lanthionine was purchased from Sequoia Research Products Ltd. (Pangbourne, UK). All other reagents were of the highest available commercial purity.
NSC-34 cells were exposed to 1 mM H2O2 with or without ethyl-pyruvate and/or lantionine (LK).

[5] = tested on: NSC-34 cells; assay: NSC-34 viability after glutamate and/or Ca2+ exposure; assay type: cell-based, mouse; settings: 1 mM L-glutamate, 1 mM CaCl2 or both, four days
Procedure: NSC-34 motor neuron x neuroblastoma cells were treated with 1 mM L-glutamate, 1 mM CaCl2, or both for four days. (R)-LKE1 was added at t=0 and at t=48 hours, at the indicated concentrations. At the end of four days (t=96 hours) cell viability was assayed by measuring tetrazolium reduction rates using a commercially available kit (Promega).

[6] = tested on: G93A-SOD1 mice; assay: G93A-SOD1 mouse model of ALS (rotarod, weight); assay type: in vivo; settings: 100 mg/kg i.p. 5 days/week from day 90
Description: Transgenic mice. Mice expressing high copy numbers of human mutant G93A-SOD1 (SOD1^G93A mice) were obtained from Jackson Laboratories [Bar Harbor Me. USA; strain designation B6SJL-TgN-(SOD1 G93A)-1-Gur] (Hensley et al., 2002; Hensley et al., 2003; West et al., 2004; Hensley et al., 2006). Transgenic mice were maintained in the hemizygous state by mating SOD1^G93A males with B6SJL-TGN females. Animals were housed in the Oklahoma Medical Research Foundation Laboratory Animal Resource Center.
Mice were trained to a rotarod task at 80 d of age. In this task mice were placed on a horizontal rod that rotates with acceleration at 10 rpm from rest (Hensley et al., 2002; Hensley et al., 2003; West et al., 2004). The time was recorded at which each mouse fell from the rotarod and the test was repeated four times on each trial date. The closest three performance times were averaged for each mouse on each day. For experimental drug treatments mice were injected with LKE at 100 mg/kg/day i.p. Monday-Friday beginning at 90 d. Control animals received saline vehicle. Rotarod performance and weights were recorded at 10 day intervals until death. Animals were euthanized when unable to right themselves within 10 seconds of being placed on their side, or when unable to perform the rotarod task.

CCOC(=O)[C@@H]1CSCC(C(=O)O)=N1 [(R)-LKE1]
suppression of PGE2 production [1]: does not to suppress prostaglandin E2 (PGE2) production
NO2- produced in response to LPS [2]: reduce the amount of NO2^− produced
EC50 ([3]; Mus musculus, NSC-34, cytokine-conditioned EOC-20 medium, read-out: concentration necessary to achieve half-maximal protective efficacy): < 1000 nM
mitigation of conditioned-medium toxicity ([3]; co-treatment with conditioned medium): largely, but not completely mitigated
protection from H2O2-induced cell death [4]: protected NSC-34 cells from direct oxidative stress-induced cell death in a dose dependent fashion
viability of cells exposed to glutamate and/or Ca2+ [5]: increases the viability
rotarod performance [6]: improved
weight loss [6]: inhibited weight loss

From patent US7683055B2, “Lanthionine-related compounds for the treatment of inflammatory diseases” (Oklahoma Medical Research Foundation, priority 2006, dated 2010)
